# Results taken from patent US6407250B1, “Interphenylene 7-oxabicyclic [2.2.1] heptane oxazoles as prostaglandin F2a antagonists” (Allergan Sales, Inc., priority 2000, dated 2002).
# Target: T1, human FP receptor (Homo sapiens, UniProt P43088)
# T1 construct: expressed in transfected cells
# Experiment: Ca2+ signaling: antagonism of the 17-phenyl PGF2α response in HEK cells stably transfected with the human FP receptor
# Format: cell-based
# Conditions: compared with the compound of U.S. Pat. Nos. 5,100,889 and 5,153,327
# Description: The compound of Example 22 was tested for PGF2αantagonist activity as follows:
# HEK cells stably transfected with the human FP receptor were removed from the culture flasks by approximately 1 min treatment with trypsin 0.05%/0.53 mM EDTA in HBSS (Gibco, Grand Island, N.Y.) at 37° C. Proteolytic activity was arrested by adding 5 ml of 10% fetal bovine serum in DMEM. The cells were consecutively washed in Hank's BSS and medium containing 140 mM NaCl, […], 1 mM MgCl2, 1.5 mM CaCl2, 10 mM HEPES: TRIS, 5 mM glucose, 5 mM Na pyruvate, 0.1% bovine serum albumin at pH 7.4: centrifugation for the washes was performed for 15 minutes at 200 g at room temperature. Cells were counted, resuspended in the above medium and incubated with 2×10^−6 M Fura 2/acetoxymethyl ester in a shaking water bath for 30 minutes at 37° C. The cells were subsequently washed in medium as above and resuspended at a concentration of 2×10^6 cells ml^−1. Aliquots of 0.5 ml cell suspension were then added to autocap microtubes to provide 10^6 cells per experimental determination of intracellular free Ca^2+concentration ([Ca^2+]i).
# Fluorescence was measured in a Perkin-Elmer LS-5 fluorescence spectrophotometer at excitation and emission wavelengths of 340 and 492 nm, respectively, with both slits at 10 nm. […]
# T1 sequence (P43088 whole entry): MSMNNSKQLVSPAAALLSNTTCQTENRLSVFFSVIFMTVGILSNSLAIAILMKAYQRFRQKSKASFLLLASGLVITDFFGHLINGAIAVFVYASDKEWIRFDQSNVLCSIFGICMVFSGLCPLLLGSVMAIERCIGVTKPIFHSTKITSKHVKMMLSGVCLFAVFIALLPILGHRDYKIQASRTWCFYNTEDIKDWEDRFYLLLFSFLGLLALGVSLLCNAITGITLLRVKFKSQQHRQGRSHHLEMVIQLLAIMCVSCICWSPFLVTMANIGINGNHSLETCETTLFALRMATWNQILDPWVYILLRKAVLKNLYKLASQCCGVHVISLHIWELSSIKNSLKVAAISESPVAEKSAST
row,SMILES,PGF2α antagonist activity (comparison in words)
1,COC(=O)CCc1ccccc1CC1C2CCC(O2)C1c1nc(C(=O)NCCCCC2CCCCC2)co1 (centres unmarked),much less active than the corresponding acid
2,"O=C(O)CCc1ccc(F)cc1C[C@@H]1[C@H](c2nc(C(=O)NCCCCC3CCCCC3)co2)[C@H]2CC[C@H]1O2 [Example 22, 3-(2-{(1R, 2R, 3S, 4R)-3-[4-(4-Cyclohexyl-butylcarbamoyl)-oxazol-2-yl]-7-oxa-bicyclo[2.2.1]hept-2-ylmethyl}-4-fluoro-phenyl)-propionic acid]","greater than the compound disclosed in U.S. Pat. Nos. 5,100,889 and 5,153,327"
